Test results as given in publication PMC7294595 (Bioorganic & medicinal chemistry, 2020).
Where a SMILES comes first, the peptide text is derived from it. [ ]: non-standard residue; d: D form. pY = N[C@@H](Cc1ccc(OP(=O)(O)O)cc1)C(=O)O

What was measured:
STAT3:DNA binding = conditions: electrophoretic mobility shift assay measuring STAT3:DNA binding; cited from earlier work
[1] = biological target: STAT3-gp130 phosphopeptide interaction (STAT3 SH2 domain) (Homo sapiens, UniProt P40763); assay: Competition fluorescence polarization assay
Chain of STAT3-gp130 phosphopeptide interaction (STAT3 SH2 domain) (P40763 127-711): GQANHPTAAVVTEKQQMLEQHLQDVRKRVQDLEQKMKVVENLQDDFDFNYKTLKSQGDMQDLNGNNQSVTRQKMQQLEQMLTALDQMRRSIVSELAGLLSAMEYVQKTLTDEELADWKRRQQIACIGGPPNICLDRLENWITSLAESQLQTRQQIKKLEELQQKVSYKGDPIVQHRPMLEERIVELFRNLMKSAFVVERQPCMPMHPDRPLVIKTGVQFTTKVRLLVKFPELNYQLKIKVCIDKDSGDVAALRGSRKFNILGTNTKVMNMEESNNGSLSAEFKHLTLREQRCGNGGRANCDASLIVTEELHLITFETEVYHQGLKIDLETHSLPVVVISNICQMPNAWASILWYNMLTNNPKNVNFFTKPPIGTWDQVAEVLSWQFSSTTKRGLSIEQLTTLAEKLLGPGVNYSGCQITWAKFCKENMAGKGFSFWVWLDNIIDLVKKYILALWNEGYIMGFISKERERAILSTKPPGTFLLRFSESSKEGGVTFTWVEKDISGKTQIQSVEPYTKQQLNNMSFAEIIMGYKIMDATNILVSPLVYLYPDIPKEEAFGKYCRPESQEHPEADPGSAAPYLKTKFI

Compound | IC50 (STAT3:DNA binding) | IC50 [1]
Ac-G[pY]LPQTV-NH2 [gp130-derived phosphopeptide] | 150 nM | 
CC(=O)NCC(=O)N[C@@H](Cc1ccc(OP(=O)(O)O)cc1)C(=O)N[C@@H](CC(C)C)C(=O)N1CCC[C@H]1C(=O)N[C@@H](CCC(N)=O)C(=O)N[C@H](C(=O)N[C@H](C(N)=O)C(C)C)[C@@H](C)O [ac-pTyr] (Ac-G[pY]LPQTV-NH2) |  | 610 nM
